Read-outs that look alike come from different tables or passages of the source.
How the values were obtained:
cIAP1 = target: T1, cIAP1 (Homo sapiens, UniProt Q13490); test: Western blot analysis of cIAP1 autoubiquitination and proteasomal degradation in MDA-MB-231 cells; format: cell-based; conditions: 10 µM, 15 and 120 min
T1 construct: induce autoubiquitination and degradation of cIAP1 in MDA-MB-231 breast cancer cells; endogenous in cells; host or cells: MDA-MB-231
Procedure: Prior to Western blot sample collection, cells were harvested by trypsinization, counted and seeded on 50 mm Petri dishes. After overnight incubation, the culture medium was replaced with fresh medium containing the tested compounds at the target concentration ranges with 0.1% (v/v) DMSO as a control. Next, the cells were washed with PBS and lysed with ice-cold RIPA buffer containing protease and phosphatase inhibitors (Sigma-Aldrich, Poznań, Poland), and after debris removal (4 °C, 15 min, 16,000 × g), the lysates were used in further experiments.
MDA-MB-231 cell lysates (25 µg of total protein/lane) were resolved by SDS-PAGE (4–12%, Tris-glycine, reducing conditions) and transferred onto a nitrocellulose membrane (0.45 µm pore size; Thermo Scientific, Gdańsk, Poland) using the semi-dry blotting system (Cleaver Scientific, Rugby, UK). The membrane was washed with 10 mM PBS (pH 7.4; 5 min, r.t.) and blocked with 5% skim milk in PBS supplemented with 0.05% Tween-20 (PBST) for 1 h at r.t. Subsequently, the membrane was washed with PBST (3 times for 5 min, r.t.) and incubated with rabbit anti-cIAP1 monoclonal IgG (1:1,000 in 0.5% skim milk in PBST; 4 °C, overnight; Cell Signaling Technology, Warszawa, Poland, Cat# 7065, D5G9). […]

XIAP BIR3 domain = target: T2, XIAP BIR3 domain (Homo sapiens, UniProt P98170); test: Fluorescence polarization inhibition (competition) assay; format: binding; conditions: for inhibition at 50 µM: 0.5 h, antagonist 50 µM, inhibition of protein-probe interaction; for Ki / EC50: XIAP BIR3 50 nM, fluorescent probe 4 2 nM
T2 construct: fluorescent probe 4 and the XIAP BIR3 domain (Sino Biological, Beijing, China) were used for all measurements; purchased Sino Biological, Beijing, China
Summary of the method: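 BIR3 protein (50 nM) preincubated 15 min at r.t. with compound (50 μM to 0.0537 nM), then fluorescent probe 4 (2 nM) added and polarization read 30 min later (ex 484, em 528 nm). Phosphate buffer pH 7.5 with γ-globulin, NaN3, 1.4% DMSO; duplicates. EC50 from variable-slope fit, converted to Ki.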

T2 sequence (P98170 252-356 limits assumed): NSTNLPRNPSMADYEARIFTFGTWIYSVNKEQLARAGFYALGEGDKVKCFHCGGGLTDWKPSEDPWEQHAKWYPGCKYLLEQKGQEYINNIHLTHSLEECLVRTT
T1 sequence (Q13490 whole entry): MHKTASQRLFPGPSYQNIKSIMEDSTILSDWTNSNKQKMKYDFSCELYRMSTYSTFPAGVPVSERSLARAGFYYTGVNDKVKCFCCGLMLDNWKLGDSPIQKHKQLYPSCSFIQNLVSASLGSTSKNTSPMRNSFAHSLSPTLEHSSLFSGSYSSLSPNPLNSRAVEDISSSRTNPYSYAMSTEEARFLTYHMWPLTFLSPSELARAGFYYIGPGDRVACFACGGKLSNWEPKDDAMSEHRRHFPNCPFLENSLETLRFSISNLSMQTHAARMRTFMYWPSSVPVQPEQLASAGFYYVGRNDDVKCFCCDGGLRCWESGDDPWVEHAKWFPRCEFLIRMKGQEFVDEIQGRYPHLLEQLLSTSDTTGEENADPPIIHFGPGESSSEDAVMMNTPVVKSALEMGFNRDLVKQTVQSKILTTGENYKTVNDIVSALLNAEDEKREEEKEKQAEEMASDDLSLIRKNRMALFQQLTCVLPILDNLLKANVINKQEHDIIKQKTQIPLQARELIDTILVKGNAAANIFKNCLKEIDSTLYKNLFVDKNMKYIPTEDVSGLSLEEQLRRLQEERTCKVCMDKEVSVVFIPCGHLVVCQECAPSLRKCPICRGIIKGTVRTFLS

Structure (SMILES) | induction of autoubiquitination and degradation of cIAP1 (cIAP1) | inhibition at 50 µM (XIAP BIR3 domain) [%] | Ki (XIAP BIR3 domain) [nM] | EC50 (XIAP BIR3 domain; read-out: EC50) [nM] | EC50 (XIAP BIR3 domain; read-out: log EC50 (converted)) [nM]
CN[C@@H](C)C(=O)N[C@H](C(=O)N1CCC[C@H]1C(=O)NC(Cc1ccccc1)P(=O)(Oc1ccccc1)Oc1ccccc1)C(C)C (stereo partly drawn) [Compound 41, diphenyl (1-((S)-1-((S)-3-methyl-2-((S)-2-(methylamino)propanamido)butanoyl)pyrrolidine-2-carboxamido)-2-phenylethyl)phosphonate] | greatest ability to induce cIAP1 degradation | 100 | 50 | 130 | 131
CN[C@@H](C)C(=O)N[C@H](C(=O)N1CCC[C@H]1C(=O)NC(Cc1ccccc1)P(=O)(Oc1ccccc1)Oc1ccccc1)C1CCCCC1 (stereo partly drawn) [Compound 42, diphenyl (1-((S)-1-((S)-2-cyclohexyl-2-((S)-2-(methylamino)propanamido)acetyl)pyrrolidine-2-carboxamido)-2-phenylethyl)phosphonate] | greatest ability to induce cIAP1 degradation | 100 | 350 | 740 | 738

— article PMC7497679, “Structure-based design, synthesis, and evaluation of the biological activity of novel phosphoroorganic small molecule IAP antagonists” (Investigational New Drugs, 2020)
